Values quoted from earlier work, collected in patent US6103723A, “Inhibitors of farnesyl-protein transferase” (Merck & Co., Inc., priority 1998, dated 2000).

System: farnesyl-protein transferase
Conditions: via HMG-CoA reductase inhibition

SMILES | Indirect inhibition of farnesyl-protein transferase in vivo
CC[C@H](C)C(=O)O[C@H]1CCC=C2C=C[C@H](C)[C@H](CC[C@@H]3C[C@@H](O)CC(=O)O3)[C@H]21 [compactin] | Indirect inhibition of farnesyl-protein transferase in vivo has been demonstrated
CC[C@H](C)C(=O)O[C@H]1C[C@@H](C)C=C2C=C[C@H](C)[C@H](CC[C@@H]3C[C@@H](O)CC(=O)O3)[C@H]21 [lovastatin] | Indirect inhibition of farnesyl-protein transferase in vivo has been demonstrated
